Consider one compound from patent US12611386B2, “Extended release pharmaceutical formulation” (Douglas Pharmaceuticals Ltd., priority 2020, dated 2026).

Each structure is given as a SMILES string. Like-named read-outs stand apart in the source and are kept apart here.

For data set [1], the system named is patients with treatment-resistant depression and/or treatment-resistant anxiety (TRD/TRA). The data set can be described thus: Study ZPS-603 Cohort 4: mood ratings (HAMA, FQ, MADRS), open label multiple ascending dose. It is filed as in vivo, human. Particulars: injected drug in earlier treatment (FIG. 7). The protocol:
The objective of Cohort 4 was to evaluate efficacy, safety, PK and PD of an extended release ketamine oral formulation in patients with treatment-resistant depression and/or treatment-resistant anxiety (TRD/TRA). […] The design was an open label multiple ascending dose study. The initial dose was 60 mg, and could be escalated by an additional 60 mg 12 hourly, based on assessment of mood symptoms, to a maximum dose of 240 mg, with a total of 7 doses given 12 hourly between 0 and 72 hours. Endpoints included safety, tolerability, ketamine and norketamine PK, and PD (mood ratings including the Fear Questionnaire (FQ; Marks 1979), HAMA and MADRS, and dissociative symptom rating scale scores).

The subject of another data set is TRD patients. Particulars: Singh et al. 2016, cited from earlier work.
For data set [2] the following is noted: injected by any route of administration (e.g. Loo 2016); cited from earlier work.

For the compound `CNC1(c2ccccc2Cl)CCCCC1=O` (stereo not shown) [IV ketamine, 2-(2-chlorophenyl)-2-(methylamino)cyclohexan-1-one], the “onset of improvement of anxiety symptoms” value in data set [1] lay within 1 to 2 h. Besides, the results for the TRD patients remitted in the data set with TRD patients (0.5 mg/kg IV thrice weekly) and with TRD patients (0.5 mg/kg IV twice weekly for 15 days) were 23.1% and 37.5%, respectively. The “duration of marked dissociative symptoms after dosing” value in data set [2] is reported as “up to 60 minutes”.
